Laboratory results: US10934273B2, “Crystalline forms of 4-(2-((1R,2R)-2-hydroxycyclohexylamino)benzothiazol-6-yloxy)-N-methylpicolinamide” (Novartis AG, priority 2016, dated 2021)
Counter-ions that a name gives are not always drawn. Like-named read-outs stand apart in the source and are kept apart here.

How the values were obtained:
Format in all cases: physicochemical
[1] = Hygroscopicity (water uptake / exposure to humidity)
Description: (§1) The crystalline di-hydrochloride monohydrate salt of 4-(2-((1R,2R)-2-hydroxycyclohexylamino)benzothiazol-6-yloxy)-N-methylpicolinamide (Form A) exists primarily as a crystalline material. Form A is hygroscopic, having a maximum water uptake of about 10.79% at 25° C. and up to 95% relative humidity (RH)). […] Form A has a very low aqueous solubility at neutral pH (about 0.006 mg/mL), however it has a high aqueous solubility at low pH (about >20 mg/mL).

[2] = Aqueous solubility; conditions: aqueous medium, aqueous buffer
Description: as §1

[3] = Bulk physical and chemical stability (degradation under stress conditions)
From the text: Five hydrated forms of the di-hydrochloride salt were identified, which included the crystalline di-hydrochloride monohydrate salt of 4-(2-((1R,2R)-2-hydroxycyclohexylamino)benzothiazol-6-yloxy)-N-methylpicolinamide (Form A) discussed herein.

[4] = Intrinsic dissolution rate; conditions: pH 4.5; Form A versus Form B

**Q.** For `CNC(=O)c1cc(Oc2ccc3nc(N[C@@H]4CCCC[C@H]4O)sc3c2)ccn1` [Form A, Di-Hydrochloride Monohydrate Salt of 4-(2-((1R,2R)-2-hydroxycyclohexylamino)benzothiazol-6-yloxy)-N-methylpicolinamide], which maximum water uptake ([1]; 25° C., up to 95% relative humidity (RH)) is on record?
**A.** about 10.79%

**Q.** And the “phase change on exposure to humidity” value ([1]; exposure to humidity)?
**A.** little to no phase change

**Q.** And the solubility ([2]; low pH, read-out: aqueous solubility at low pH)?
**A.** > 20000 µg/mL

**Q.** And the solubility ([2]; neutral pH, read-out: aqueous solubility at neutral pH)?
**A.** ~6 µg/mL

**Q.** What about the “thermodynamic stability compared to the other four hydrated forms” value ([3]; ambient conditions) of the same compound?
**A.** more thermodynamically stable hydrate

**Q.** What about the “degradation of bulk drug substance” value ([3]; one to two weeks at 50° C., 75% relative humidity) of the same compound?
**A.** less than 1%

**Q.** And the “degradation of bulk drug substance” value ([3]; one to two weeks at 50° C., ambient relative humidity)?
**A.** less than 1%

**Q.** And the “degradation of bulk drug substance” value ([3]; one week at 80° C., ambient relative humidity)?
**A.** less than 1%

**Q.** And the “intrinsic dissolution rate relative to mono-hydrochloride salt (Form B)” value [4]?
**A.** about 150 fold
